According to US9301989B2, “hTRPA1-activating composition and use thereof” (KOREA FOOD RESEARCH INSTITUTE, priority 2011, dated 2016):
pEC50: −log10 of the molar value. “Also recorded” adds a separate entry of the source.

Columns and labels:
[1] = molecular target: T1, hTRPA1 (Homo sapiens, UniProt O75762); assay: Evaluation of hTRPA1 action using Ca2+ imaging (Fura-2/AM) in cell lines stably expressing hTRPA1; assay type: cell-based; details: for calcium release in hTRPA1 stably expressing cell line: 50 μM, FIG. 2; for activity inhibition by ruthenium red (RR): treatment with cationic channel blocker RR
T1 construct: The hTRPA1-expressing gene (coding region) was cloned; expressed in transfected cells
Method: (§1) The hTRPA1-expressing gene (coding region) was cloned according to the manufacturer's protocol for the pcDNA5/FRT Complete System (Invitrogen). In order to verify whether the hTRPA1 gene was accurately inserted into the vector, sequencing was carried out using the ABI 130 or 310 DNA generatic analyzer (Applied Biosystems), and the constructed vector and Pog44 were transduced into Flin-in 293 cells using Lipofectamine 2000 (Invitrogen). After 24 hours, the cells were optionally treated with 100 μg/ml of hygromycin-B (Invitrogen), following by further culturing for 2-3 weeks. Then, only antibiotic-resistant cells were collected, and used for measuring cellular responses of hTRPA1, followed by repeated culturing. The cells were cultured in Dulbecco's modified Eagle's medium (DMEM) supplemented with 10% fetal bovine serum.
The Ca^2+ imaging was conducted to measure hTRPA1 activation. Fura-2/AM (Molecular Probes, USA) was used as a marker for measuring the change in the intracellular calcium concentration. At 20-26 hours before the analysis, cell lines stably expressing hTRPA1 were dispensed in a 96-well plate. The cells were cultured in a solution added with Fura-2/AM (5 μM) at 27° C. for 30 minutes. The cells were washed with an assay buffer (140 mM NaCl, 10 mM HEPES, 2 mM CaCl2.2H2O, 2 mM EGTA, 1 mM MgCl2.6H2O, 10 mM glucose, and 5 mM KCl), added with 100 μL of the assay buffer, and left at room temperature for 15 minutes. The Fura-2/AM-loaded cells were placed on a microscope, and the fluorescence absorbance was measured between 340 nm and 380 nm. The images were recorded at 3-sec intervals, and the change in the intracellular calcium concentration was analyzed using MetalFluor software (Molecular Devices, Sunnyvale, Calif., USA).

[2] = test system: NCI-H716 cells; assay: GLP-1 secretion effect in NCI-H716 cells (GLP-1 active ELISA); assay type: cell-based, human; details: 1 hour
Description: Glucagon-like peptide-1 (GLP-1), which is the hormone secreted from the gut, is involved in an anti-diabetic action by amplifying glucose-stimulated insulin secretion and suppressing the beta-cell death. GLP-1 is also involved in an anti-obesity action by decreasing the rate of gastric emptying and suppressing the appetite. Therefore, a GLP-1 secreting material can be expected to have anti-diabetic and anti-obesity effects.
The human-derived cell line NCI-H716 cells were purchased from the American Type Culture Collection (ATCC, Manassas, Va.). This cell line corresponds to suspension cells isolated from the large-intestinal Adenocarcinoma of an adult, and has been known as a cell line that mainly secrets GLP-1. For the maintenance of proliferation and culture of the cell line, the cells were cultured in RPMI 1640 medium supplemented with 10% fetal bovine serum (FBS), 2 mM L-glutamine, 100 IU/ml penicillin, and 100 μg/ml streptomycin, and for the adherence and differentiation of cells, the Matrigel matrix (Becton Dickinson and Co., Bedford, Mass.) was coated on plates and the cells were cultured in high-glucose DMEM supplemented with 10% FBS, 2 mm L-glutamine, 100 IU/ml penicillin, and 100 μg/ml streptomycin.
The NCI-H716 cell line was cultured at 2×10^5 cells/mL in a 96-well culture plate coated with Matrigel for 3 days. On the day of the experiment, the cells were washed with 1× phosphated buffered saline (PBS). For the control group, Krebs-Ringer bicarbonate buffer (KRB, 128.8 mmol/l NaCl, 4.8 mmol/l KCl, 1.2 mmol/l KH2PO4, 1.2 mmol/l MgSO4, 2.5 mmol/l CaCl2, 5 mmol/l NaHCO3, and 10 mmol/l HEPES, 0.2% BSA, pH 7.4) was used. For the analysis, the samples of different concentrations were added thereto, followed by incubation at 37° C. for 1 hour. After the incubation, the supernatant was taken (100 μL) for GLP-1 analysis, and analyzed by using the GLP-1 active ELISA kit (EGLP-35K, Millipore) according to the manufacturer's manual. The concentration of GLP-1 was calculated based on the supplied GLP-1 standard material (pmol).

[3] = molecular target: T1, hTRPA1; assay: Measurement of intracellular Ca2+ concentration using cell-based analysis (FlexStation, Fluo-4-AM)
Method: as §1
The intercellular Ca^2+ concentration was measured by using FlexStation™ (Molecular Devices, Sunnyvale, Calif., USA). Cells were dispensed at 24 hours before the analysis, and treated with 5 μM Fluo-4-AM (Molecular Probes, Eugene, Oreg., USA) as a marker for measuring the change in the intracellular calcium concentration, followed by reaction at 27° C. for 30 minutes. After that, the cells were washed with an assay buffer (140 mM NaCl, 10 mM HEPES, 2 mM CaCl22H2O, 2 mM EGTA, 1 mM MgCl26H2o, 10 mM glucose, and 5 mM KCl), added with 100 μL of the assay buffer, and left at room temperature for 15 minutes. Then, each of extracts and compositions was treated and used to measure fluorescence absorbance at 486 nm (F486) and 516 nm (F516). The change in intercellular calcium concentration was represented as A relative fluorescent unit (RFU), and was analyzed by using the Softmax software (Molecular devices, USA).

[4] = Lacrimation test (solution sprayed onto eyes of participants); assay type: in vivo; details: 1 μM solution sprayed onto eyes
Method: The lacrimation test was conducted on the coniferyl alcohol. A solution of 1 μM coniferyl alcohol was used, and experiment participants were asked to write down their feeling when the solution was sprayed onto their eyes.

[5] = Sensory test for pungent flavor; assay type: in vivo; details: 1 μM solution
Method: The sensory test was conducted for the pungent flavor due to coniferyl alcohol. A solution of 1 μM coniferyl alcohol was used, and the sensitivity of the pungent taste was marked in a 15-point scale (n=6).

T1 sequence (O75762 whole entry): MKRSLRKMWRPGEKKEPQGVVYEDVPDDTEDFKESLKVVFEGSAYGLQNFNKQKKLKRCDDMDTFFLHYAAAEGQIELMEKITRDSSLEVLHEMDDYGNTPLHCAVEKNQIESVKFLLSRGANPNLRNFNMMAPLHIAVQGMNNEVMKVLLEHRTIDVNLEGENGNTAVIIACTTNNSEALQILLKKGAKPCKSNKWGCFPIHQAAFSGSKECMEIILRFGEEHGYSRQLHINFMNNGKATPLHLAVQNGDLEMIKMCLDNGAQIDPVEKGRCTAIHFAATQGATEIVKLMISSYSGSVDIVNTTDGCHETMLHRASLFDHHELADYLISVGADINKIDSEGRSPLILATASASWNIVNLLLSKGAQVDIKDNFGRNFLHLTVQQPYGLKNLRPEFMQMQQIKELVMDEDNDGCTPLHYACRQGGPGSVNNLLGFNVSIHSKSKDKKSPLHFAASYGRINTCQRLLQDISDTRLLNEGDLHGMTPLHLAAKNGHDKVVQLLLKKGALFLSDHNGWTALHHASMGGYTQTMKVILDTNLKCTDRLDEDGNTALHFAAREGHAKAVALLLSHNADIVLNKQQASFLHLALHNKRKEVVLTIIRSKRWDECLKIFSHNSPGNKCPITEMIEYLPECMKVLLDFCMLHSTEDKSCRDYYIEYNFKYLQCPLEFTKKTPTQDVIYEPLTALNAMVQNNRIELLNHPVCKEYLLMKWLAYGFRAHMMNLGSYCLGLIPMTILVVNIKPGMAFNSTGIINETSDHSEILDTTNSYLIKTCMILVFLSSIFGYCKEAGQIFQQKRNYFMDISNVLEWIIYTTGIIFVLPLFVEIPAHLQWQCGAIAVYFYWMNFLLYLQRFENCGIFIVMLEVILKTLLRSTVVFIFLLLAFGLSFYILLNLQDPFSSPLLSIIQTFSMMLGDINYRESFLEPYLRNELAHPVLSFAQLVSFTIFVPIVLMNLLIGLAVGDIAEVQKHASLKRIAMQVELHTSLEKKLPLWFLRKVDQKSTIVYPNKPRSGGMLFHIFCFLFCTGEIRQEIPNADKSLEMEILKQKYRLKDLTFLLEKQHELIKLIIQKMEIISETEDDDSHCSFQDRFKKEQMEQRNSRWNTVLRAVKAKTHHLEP

SMILES	calcium response / hTRPA1 action in hTRPA1-expressed cells (Ca2+ imaging) [1]	calcium release in hTRPA1 stably expressing cell line [1]	activity inhibition by HC-030031 ([1]; treatment with TRPA1 antagonist HC-030031)	activity inhibition by ruthenium red (RR) [1]	GLP-1 secretion as compared with the untreated control group ([2]; 500 μM)	pEC50 ([3]; FIG. 29)	Ca2+ response inhibited by TRPA1 antagonist HC-030031 ([3]; HC-030031 100 μM)	Ca2+ response inhibited by cationic channel blocker RR ([3]; RR 30 μM)	ocular tears or irritation due to spray [4]	GLP-1 secretion as compared with the untreated control group ([2]; 3 μM)	GLP-1 secretion as compared with the untreated control group ([2]; 10 μM or higher)	taste description in sensory test [5]	intensity of pungent tastes (spicy, tingle, and tangy tastes) ([5]; 15-point scale, n=6)
C=CCN=C=S [AITC, allyl isothiocyanate]	all cells were activated	calcium was released	not inhibited	most activities were inhibited	3.9 times								
COc1cc(/C=C/CO)ccc1O [coniferyl alcohol, Coniferyl alcohol]	specifically acted on hTRPA1; also recorded: increased the intercellular Ca^2+ influx in a time-dependent manner			completely blocked		3.18	inhibited; also recorded: significantly reduced	inhibited	ocular pain (tingling, stinging, and dizziness) was observed	3 times	≥ 4 times	the remaining taste was stronger than the first taste and the tongue burns or has a pain	11.83±1.6
O=C(/C=C/c1ccc(O)c(O)c1)O[C@@H]1C[C@](O)(C(=O)O)C[C@@H](O)[C@H]1O [chlorogenic acid]	no effects												
O=CC=Cc1ccccc1 [CALD, cinnamaldehyde]	all cells were activated	calcium was released		most activities were inhibited									
